One experiment deals with PARP2 (Homo sapiens, UniProt Q9UGN5). Nature of the experiment: PARP enzymatic activity inhibition, PARP2 column. The class given is biochemical. As for the experimental part: The half maximal inhibitory concentration (IC50) with respect to PARP inhibition was determined for each test compound by using Trevigen's HT Universal PARP Assay Kit, according to the manufacturer's protocol (Cat #4677-096-K, Gaithersburg, Md.). This assay measures the incorporation of biotinylated poly(ADP-ribose) onto histone proteins in a 96-well strip well format. This assay is ideal for the determination of IC50 values of known or suspected PARP inhibitors. Briefly, stock solutions of each test compound were prepared in DMSO. Histone strip wells were incubated for 30 minutes at room temperature with 50 μl/well of 1×PARP Buffer to rehydrate the histones. Serial dilutions of either test compound were added to appropriate wells. Diluted PARP enzyme (0.5 Unit/well) was then added to the wells containing compounds, and incubated for 10 minutes at room temperature. Subsequently, 25 μl of 1×PARP Cocktail, containing activated DNA, was distributed into each well. Three types of control wells were also analyzed; i. A negative control without PARP was prepared to determine background absorbance. ii. An activity control for PARP Inhibitor Study: 0.5 Unit/well PARP-HSA without inhibitors. These wells provided the 100% activity reference point. iii. […] The reactions were then stopped by adding 50 μl per well of 0.2M HCl or 5% Phosphoric Acid and read the absorbance at 450 nm.
PARP2, sequence (Q9UGN5 whole entry, species assumed): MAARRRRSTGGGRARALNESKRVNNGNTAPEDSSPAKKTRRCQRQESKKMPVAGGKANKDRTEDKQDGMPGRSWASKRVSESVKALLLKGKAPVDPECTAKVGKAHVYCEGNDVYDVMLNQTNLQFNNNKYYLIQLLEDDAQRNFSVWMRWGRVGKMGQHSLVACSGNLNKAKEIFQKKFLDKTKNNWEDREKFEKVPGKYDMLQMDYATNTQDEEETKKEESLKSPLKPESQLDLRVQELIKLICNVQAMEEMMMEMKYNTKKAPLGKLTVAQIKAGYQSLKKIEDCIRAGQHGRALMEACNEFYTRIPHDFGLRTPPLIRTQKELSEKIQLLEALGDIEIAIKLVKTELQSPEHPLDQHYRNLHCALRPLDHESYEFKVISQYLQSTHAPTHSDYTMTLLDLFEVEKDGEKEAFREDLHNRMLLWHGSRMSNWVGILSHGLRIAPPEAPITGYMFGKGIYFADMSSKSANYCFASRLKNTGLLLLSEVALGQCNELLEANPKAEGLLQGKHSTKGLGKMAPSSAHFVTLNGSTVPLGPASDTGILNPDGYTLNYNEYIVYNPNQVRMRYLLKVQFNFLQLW

Another experiment deals with ABL1 (Homo sapiens, UniProt P00519). The experiment can be described thus: ABL kinase assay (Z'-LYTE biochemical kinase profiling). The following applies: ATP 10 μM final. Here is the method:
ABL Kinase Assays (Data in FIG. 1)
The direct inhibitory effect of the test compounds on the ABL kinases activity was assessed using the Z′-LYTE biochemical kinase profiling assays (SelectScreen Kinase Profiling assays, Life Technologies). The Z′-LYTE biochemical assay employs a fluorescence-based, coupled-enzyme format and is based on the differential sensitivity of phosphorylated and non-phosphorylated peptides to proteolytic cleavage. The peptide substrate is labeled with two fluorophores (one at each end) that make up a FRET pair. In the primary reaction, the kinase transfers the gamma-phosphate of ATP to a single tyrosine, serine or threonine residue in a synthetic FRET-peptide. In the secondary reaction, a site-specific protease recognizes and cleaves non-phosphorylated FRET-peptides. Phosphorylation of FRET-peptides suppresses cleavage by the Development Reagent. Cleavage disrupts FRET between the donor and acceptor fluorophores on the FRET-peptide, whereas uncleaved, phosphorylated FRET-peptides maintain FRET. The extent of phosphorylation of the FRET-peptide can be calculated from the Emission Ratio between cleaved and uncleaved FRET-peptides. The Emission Ratio will remain low if the FRET-peptide is phosphorylated (i.e., no kinase inhibition) and will be high if the FRET-peptide is non-phosphorylated (i.e., kinase inhibition).
Using the above described assay, The Test Compounds were screened in 1% DMSO (final) in the well. 10 point titrations, 3-fold serial dilutions were conducted. Briefly, in a black 384-well plate serial dilutions of test compound or 100 nL 100× were mixed with kinase buffer peptide/Kinase Mixture and ATP Solution (10 μM final). After one hour Kinase Reaction incubation at room temperature, the development Reagent Solution was added. Subsequently, the fluorescence signals were measured using a fluorescence plate reader. Data were analyzed and the IC50 were calculated with XLfit graphing software using the sigmoidal dose-response model.

A further experiment relates to OVCAR8. The experiment can be described thus: Cell viability assay in solid tumor cell lines (Cell-Titer Glo), OVCAR8. The class given is cell-based. Particulars: Homo sapiens, OVCAR-8, 72 hours. Here is the method: (§1) Cell Viability Assay in Solid Tumors Cell Lines (Data in FIG. 2)
(§2) Human cancer cell lines (lung, ovarian, breast pancreatic and mesothelioma) were purchased from the ATCC. The cell lines were cultured in RPMI 1640 (Life Technologies, Carlsbad, Calif.) supplemented with 10% fetal bovine serum (FBS) and antibiotics. […] At the end of treatment, cell proliferation was determined by an intracellular adenosine triphosphate monitoring system (Cell-Titer Glo-Promega).
(§3) Inhibitory activity was evaluated comparing treated versus control data using the GraphPad Prism 6.0 software.

The target of a further experiment is T1, PARP1 (Homo sapiens, UniProt P09874).
T1 construct: purchased Trevigen 4677-096-K
T1 sequence (P09874 whole entry): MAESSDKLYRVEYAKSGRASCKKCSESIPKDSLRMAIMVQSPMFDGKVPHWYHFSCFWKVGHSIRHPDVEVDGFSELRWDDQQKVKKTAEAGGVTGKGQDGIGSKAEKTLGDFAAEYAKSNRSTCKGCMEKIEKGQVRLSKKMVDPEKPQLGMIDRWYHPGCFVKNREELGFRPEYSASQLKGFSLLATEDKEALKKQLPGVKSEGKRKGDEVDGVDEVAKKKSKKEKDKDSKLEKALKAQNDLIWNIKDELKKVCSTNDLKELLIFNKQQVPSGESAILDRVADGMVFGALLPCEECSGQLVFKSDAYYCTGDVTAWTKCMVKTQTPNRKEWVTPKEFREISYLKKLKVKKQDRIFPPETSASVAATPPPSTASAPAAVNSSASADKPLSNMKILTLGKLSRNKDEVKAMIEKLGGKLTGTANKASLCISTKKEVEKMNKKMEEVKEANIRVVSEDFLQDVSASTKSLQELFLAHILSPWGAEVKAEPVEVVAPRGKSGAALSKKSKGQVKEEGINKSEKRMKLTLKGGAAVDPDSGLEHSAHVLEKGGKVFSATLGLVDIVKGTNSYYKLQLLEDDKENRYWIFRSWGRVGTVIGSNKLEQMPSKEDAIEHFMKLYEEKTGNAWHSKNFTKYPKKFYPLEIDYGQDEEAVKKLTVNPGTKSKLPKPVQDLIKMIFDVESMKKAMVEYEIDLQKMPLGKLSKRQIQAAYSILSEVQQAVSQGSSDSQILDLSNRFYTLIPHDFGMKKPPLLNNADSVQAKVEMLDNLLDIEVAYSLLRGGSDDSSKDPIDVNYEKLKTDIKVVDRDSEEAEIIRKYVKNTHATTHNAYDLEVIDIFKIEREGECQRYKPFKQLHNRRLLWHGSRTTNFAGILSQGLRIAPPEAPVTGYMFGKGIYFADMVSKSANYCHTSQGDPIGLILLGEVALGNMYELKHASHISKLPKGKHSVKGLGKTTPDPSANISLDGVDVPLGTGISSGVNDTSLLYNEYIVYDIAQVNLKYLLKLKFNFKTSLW
Nature of the experiment: PARP enzymatic activity inhibition (Trevigen HT Universal PARP Assay Kit). The class given is biochemical. Here is the method: PARP Enzymatic Activity Inhibition: Determination of IC50 Values for Selected Compounds (Data in FIG. 1)
The half maximal inhibitory concentration (IC50) with respect to PARP inhibition was determined for each test compound by using Trevigen's HT Universal PARP Assay Kit, according to the manufacturer's protocol (Cat #4677-096-K, Gaithersburg, Md.). This assay measures the incorporation of biotinylated poly(ADP-ribose) onto histone proteins in a 96-well strip well format. This assay is ideal for the determination of IC50 values of known or suspected PARP inhibitors. Briefly, stock solutions of each test compound were prepared in DMSO. Histone strip wells were incubated for 30 minutes at room temperature with 50 μl/well of 1×PARP Buffer to rehydrate the histones. Serial dilutions of either test compound were added to appropriate wells. Diluted PARP enzyme (0.5 Unit/well) was then added to the wells containing compounds, and incubated for 10 minutes at room temperature. Subsequently, 25 μl of 1×PARP Cocktail, containing activated DNA, was distributed into each well. Three types of control wells were also analyzed; i. A negative control without PARP was prepared to determine background absorbance. ii. An activity control for PARP Inhibitor Study: 0.5 Unit/well PARP-HSA without inhibitors. These wells provided the 100% activity reference point. iii. And a PARP Standard Curve: Serial dilution of the PARP-HAS standard were prepared in cold microtubes with 1×PARP Buffer such that the total activity is 1 Unit/25 μl, 0.5 Units/25 μl, 0.25 Units/25 μl, 0.1 Units/25 μl, 0.05 Units/25 μl, 0.025 Units/25 and 0.01 Units/25 μl. 25 μl of each standard was added to triplicate wells. Following a 60 minutes incubation at room temperature, the strip wells were washed twice with 1×PBS+0.1% Triton X-100, and twice with 1×PBS. For activity detection, 50 μl per well of diluted Strep-HRP was added, and then incubated at room temperature for 60 minutes. Subsequently, 50 μl per well of pre-warmed TACS-Sapphire™ colorimetric substrate was added followed by a 15 minutes incubation, in the dark, at room temperature. The reactions were then stopped by adding 50 μl per well of 0.2M HCl or 5% Phosphoric Acid and read the absorbance at 450 nm.
The IC50 values were determined by performing non-linear regression analysis fitting velocities and the logarithm of inhibitor concentrations to a sigmoidal dose response with a variable slope model using the GraphPad Prism 6.0 software.

The subject of a further experiment is A549. Nature of the experiment: Cell viability assay in solid tumor cell lines (Cell-Titer Glo), A549. The following applies: Homo sapiens, 72 hours. Type of experiment: cell-based. As for the experimental part: as §1, §2, §3
In a further experiment the test system is bovine brain tubulin. The experiment can be described thus: Tubulin polymerization assay (Cytoskeleton kit BK011P). The class given is biochemical. Particulars: % Inhibition versus control; compound concentration of 4 μM. The text has this: Tubulin Polymerization Assay (Data in FIG. 1)
The high-throughput screening-tubulin polymerization assay kit (Cytoskeleton, Cat. #BK011P) is an economical one step procedure for determining the effects of drugs or proteins on tubulin polymerization. Polymerization is followed by fluorescence enhancement due to the incorporation of a fluorescent reporter into microtubules as polymerization occurs. The standard assay tubulin generates a polymerization curve representing the three phases of microtubule formation, namely nucleation, growth, and steady state equilibrium. Compounds that interact with tubulin will often alter one or more of the characteristic phases of polymerization. For example, the anti-mitotic drug paclitaxel eliminates the nucleation phase and enhances the Vmax of the growth phase. Similarly, the microtubule destabilizing drug, vinblastine (also antimitotic) causes a decrease in Vmax and a reduction in final polymer mass. Thus, one application of this assay is the identification of novel anti-mitotics.
The direct effects of the test compounds on tubulin polymerization were investigated using the abovementioned Tubulin polymerization assay kit (Cytoskeleton, Cat. #BK011P), as indicated by the manufacturer protocol. Briefly, bovine brain tubulin (400 μg/sample) in the presence of either 0.5% DMSO treated (control), 4 μM test compounds, 3 μM paclitaxel (Cytoskeleton), or 3 μM vinblastine (Cytoskeleton) was incubated in PEM buffer [80 mm PIPES, 1 mm EGTA, 1 mm MgCl2 (pH 6.8)] containing 1.0 mm GTP (G-PEM) and 15% glycerol, at 37 C. All samples (wells) contained 15% glycerol. The degree of polymerization over time was measured in a spectrophotometer (Biotek synergy HT plate reader) at 350 nm. All time points were plotted and analyzed using GraphPad Prism 6.0 software.
DMSO control was set as 0% inhibition. Positive values depict the percentage of decrease in Vmax and final polymer mass, as compared to control. Negative values are inversely correlated to degree of nucleation phase elimination and the percentage of increase of the Vmax, as compared to control.

ABL1, sequence (P00519 whole entry): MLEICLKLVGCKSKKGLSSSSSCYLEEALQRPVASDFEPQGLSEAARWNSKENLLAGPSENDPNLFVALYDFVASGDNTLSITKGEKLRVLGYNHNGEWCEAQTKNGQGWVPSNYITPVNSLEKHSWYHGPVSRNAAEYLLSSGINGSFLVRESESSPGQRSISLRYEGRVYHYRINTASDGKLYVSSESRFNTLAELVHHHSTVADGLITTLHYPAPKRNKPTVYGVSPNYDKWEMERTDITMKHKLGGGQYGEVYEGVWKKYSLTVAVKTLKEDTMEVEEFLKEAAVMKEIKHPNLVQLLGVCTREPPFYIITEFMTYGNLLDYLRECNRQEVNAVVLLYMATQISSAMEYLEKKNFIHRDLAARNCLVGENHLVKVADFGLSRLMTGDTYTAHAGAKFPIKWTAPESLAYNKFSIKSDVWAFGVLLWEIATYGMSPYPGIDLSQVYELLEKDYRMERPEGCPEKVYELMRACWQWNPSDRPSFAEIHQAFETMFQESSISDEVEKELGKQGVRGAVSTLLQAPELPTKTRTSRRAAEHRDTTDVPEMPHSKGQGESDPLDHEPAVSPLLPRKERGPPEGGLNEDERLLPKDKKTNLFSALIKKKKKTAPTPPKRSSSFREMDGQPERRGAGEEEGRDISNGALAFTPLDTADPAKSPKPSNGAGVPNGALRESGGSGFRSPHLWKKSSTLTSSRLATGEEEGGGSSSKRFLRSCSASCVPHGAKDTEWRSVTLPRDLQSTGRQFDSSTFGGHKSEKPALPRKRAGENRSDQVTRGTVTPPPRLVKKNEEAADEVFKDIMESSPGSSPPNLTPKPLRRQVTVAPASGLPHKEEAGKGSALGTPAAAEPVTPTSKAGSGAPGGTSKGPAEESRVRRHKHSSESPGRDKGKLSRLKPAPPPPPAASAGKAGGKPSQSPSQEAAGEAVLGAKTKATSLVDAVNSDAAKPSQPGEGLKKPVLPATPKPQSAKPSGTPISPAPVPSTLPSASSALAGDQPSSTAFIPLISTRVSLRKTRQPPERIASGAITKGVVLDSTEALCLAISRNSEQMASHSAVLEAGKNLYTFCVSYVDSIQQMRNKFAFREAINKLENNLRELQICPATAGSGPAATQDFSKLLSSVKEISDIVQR

For the compound `CCOC(=O)Nc1nc2cc(-c3n[nH]c(=O)c4ccccc34)ccc2[nH]1` [Compound No. 1, Ethyl (5-(4-oxo-3,4-dihydrophthalazin-1-yl)-1H-benzimidazol-2-yl)carbamate], the half-inhibitory concentration (IC50) was less than 500 nM at PARP2; less than 500 nM against ABL1; less than 500 nM in the experiment with OVCAR8; 5000 to 10000 nM against PARP1; less than 500 nM in the experiment with A549. Further, in the experiment on bovine brain tubulin, the “Tubulin Polymerization Inhibition” value was “Y (Y = (% Inhibition versus control) ≤20%. Results with a compound concentration of 4 μM)”.

As usually defined, the IC50 is the concentration at which inhibition is half-maximal.

The values are drawn from patent US11708352B2, “Anti-cancer compounds” (THE REGENTS OF THE UNIVERSITY OF CALIFORNIA, priority 2015, dated 2023).
